The values that follow come from patent publication US20260306640A1, “TECHNOLOGIES TARGETING CELL STATES” (Auron Therapeutics, Inc., priority 2023, published 2026).

The target of assay [1] is T1, KAT2B (Homo sapiens, UniProt Q92831). Nature of the assay: KAT2B degradation, Western Blot, MOLM-13 cells. Format: cell-based. On the set-up: degrader, Western blot. As to conditions: MOLM-13, KAT2B. The protocol:
MOLM-13 cells were maintained at 37° C. in 5% CO2 and 90% humidity in RPMI 1640 supplemented with 20% fetal bovine serum (FBS) and 1× penicillin/streptomycin. Cells were plated in full media at 1-2 million cells/2 mL in a 6-well tissue culture treated plate with or without compounds for 24 h at 37° C. in 5% CO2.
MOLM-13 cells or NCI-H1048 cells were washed with PBS, then lysed with RIPA buffer containing 1×protease and phosphatase inhibitors (SantaCruz Biotechnologies Cat #sc-24948A). Protein was isolated by centrifugation at 12,000×g for 10 minutes at 4° C. and supernatant was collected. Protein was quantified via Bradford assay. Samples were diluted to 4 μg lysate in 16 μL RIPA buffer and then 4 μL of Jess Sample Buffer. Samples were heated at 95° C. for 5 minutes. Samples were loaded onto 12-230 kDa Jess™ Separation Module, 8×25 capillary cartridges (SM-W004, Biotechne). Antibodies loaded were: Primary antibody for KAT2A (GCN5L2 (C26A10) Rabbit mAb (3305, CST)) and for KAT2B (PCAF (C14G9)) Rabbit mAb (3378, CST) at 1:1000 and Anti-Rabbit Detection Module for Jess™ (Cat No #DM-001, Biotechne). Signal was detected by chemiluminescence.
DC50 values were determined from percent reduction of protein as compared to the DMSO control.

Assay [2] has as its target T2, KAT2A (Homo sapiens, UniProt Q92830). Nature of the assay: KAT2A degradation, Western Blot (Jess), MOLM-13 cells. The class given is cell-based. On the set-up: degrader, Western blot. The conditions noted are these: MOLM-13, KAT2A. A digest of the protocol: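 MOLM-13 cells in RPMI 1640/20% FBS were treated with compound for 24 h at 37 °C. RIPA lysates (4 μg) were run on a capillary Western (Jess) with anti-KAT2A antibody and chemiluminescent detection. DC50 comes from percent protein reduction versus DMSO control.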

In assay [3] the test system is MOLM-13 cells. Nature of the assay: Cell growth inhibition, AML cell line MOLM-13 (CyQuant, day 7). The class given is cell-based. As to conditions: Homo sapiens; MOLM-13, comparison table with Ref-1; read-out: Growth GI50. From the text:
(§1) Among other things, provided technologies are useful for treating various diseases, disorders, or conditions. For example, in some embodiments, provided technologies are useful for treating cancer as confirmed in the present Example. […] In some embodiments, provided technologies can inhibit cell proliferation. In some embodiments, the present disclosure provides technologies for assessing various technologies, e.g., compounds, compositions, or methods. Among other things, the present Example provides technologies, e.g., cell growth inhibition assay, for assessing various technologies. […] In some embodiments, the following cell growth inhibition methods are utilized to assess provided technologies.
AML: AML cell line MOLM-13 cells were cultured in RPMI+15% FBS and were plated at 500 cells/well in 100 uL media in a U-bottom 96-well plate. Compounds were dilute to 3×final in full media and 50 uL were added to corresponding wells. Compound and media were replenished on days 2 and 5. On day 7, cells were transferred to a 96-well black bottom plate and CyQuant was performed per manufacturer's instructions.
(§2) In some assessments, for cell growth inhibition, cells, e.g., MOLM13, NCI-H1048, and LASCPC-01 cells, were counted using a hemocytometer or automated cell counting in triplicates. In some assessments, proliferation in NEPC organoids as measured with Cell Titer Glo reagent (Promega). Growth inhibition was determined relative to vehicle control.

For assay [4], the system named is NCI-H1048 cells. Nature of the assay: Cell growth inhibition, SCLC cell line NCI-H1048 (cell count, day 11). The conditions noted are these: Homo sapiens; NCI-H1048, comparison table with Ref-1; read-out: Growth GI50. Format: cell-based, human.
Text: as §1
SCLC: SCLC cell lines NCI-H1048 and NCI-H1876 were cultured in DMEM F12 media with 5% FBS, 1% Penicillin/Streptomycin and HITES supplement (Hydrocortisone, Insulin, Transferrin, Estradiol and Sodium Selenite). NCI-H1048 cells were plated at 10,000 cells/well of a 24-well plate and NCI-H1876 cells were plated at 20,000 cells/well of a 96-well plate. Compound and media were replenished every two days out to day 11 and 10 respectively. Cells were then trypsinized and counted using either hemocytometer or an automated Countess cell counter.
as §2

For assay [5], the target named is T2, KAT2A. As to the kind of experiment: KAT2A degradation, Western Blot (Jess), NCI-H1048 cells. Format: cell-based. On the set-up: degrader, Western blot (Jess). The conditions noted are these: NCI-H1048, KAT2A. Summed up: (§3)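 NCI-H1048 cells grown in HITES medium with 5% FBS were treated with compounds for 24 h at 37° C. Lysates were run by capillary Western (Jess) with KAT2A or KAT2B antibodies and chemiluminescent detection. DC50 derived from percent protein reduction versus DMSO control.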
For orientation: A western blot detects proteins with antibodies after separation by electrophoresis.

Assay [6] has as its target T1, KAT2B. Nature of the assay: KAT2B degradation, Western Blot (Jess), NCI-H1048 cells. Format: cell-based. Also noted: degrader, Western blot (Jess). The conditions noted are these: NCI-H1048, KAT2B. A digest of the protocol:
as §3

[7] abbreviates: 24 h, read-out: DC90 (the source's name).

T2 sequence (Q92830 whole entry): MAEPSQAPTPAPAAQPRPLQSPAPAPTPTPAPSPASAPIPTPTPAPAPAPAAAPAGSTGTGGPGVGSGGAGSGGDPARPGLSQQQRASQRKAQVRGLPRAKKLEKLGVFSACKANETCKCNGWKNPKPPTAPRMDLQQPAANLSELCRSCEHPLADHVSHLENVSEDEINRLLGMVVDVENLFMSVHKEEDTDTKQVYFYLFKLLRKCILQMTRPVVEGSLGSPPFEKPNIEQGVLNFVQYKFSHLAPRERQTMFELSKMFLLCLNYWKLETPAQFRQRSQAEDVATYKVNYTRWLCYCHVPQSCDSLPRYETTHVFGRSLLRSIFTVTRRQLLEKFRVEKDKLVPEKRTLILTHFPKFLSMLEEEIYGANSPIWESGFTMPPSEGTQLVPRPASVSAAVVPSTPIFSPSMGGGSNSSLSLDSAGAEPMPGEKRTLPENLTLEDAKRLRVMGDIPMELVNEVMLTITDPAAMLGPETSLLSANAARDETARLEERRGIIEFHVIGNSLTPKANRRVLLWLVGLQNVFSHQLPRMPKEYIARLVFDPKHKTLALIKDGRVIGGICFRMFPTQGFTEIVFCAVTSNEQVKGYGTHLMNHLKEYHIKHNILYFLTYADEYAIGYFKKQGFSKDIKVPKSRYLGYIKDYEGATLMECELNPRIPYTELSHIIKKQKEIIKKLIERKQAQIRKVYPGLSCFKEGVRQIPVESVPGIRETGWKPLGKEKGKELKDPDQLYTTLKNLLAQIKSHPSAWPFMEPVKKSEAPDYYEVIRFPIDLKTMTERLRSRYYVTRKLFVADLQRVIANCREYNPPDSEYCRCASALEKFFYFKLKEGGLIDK
T1 sequence (Q92831 whole entry): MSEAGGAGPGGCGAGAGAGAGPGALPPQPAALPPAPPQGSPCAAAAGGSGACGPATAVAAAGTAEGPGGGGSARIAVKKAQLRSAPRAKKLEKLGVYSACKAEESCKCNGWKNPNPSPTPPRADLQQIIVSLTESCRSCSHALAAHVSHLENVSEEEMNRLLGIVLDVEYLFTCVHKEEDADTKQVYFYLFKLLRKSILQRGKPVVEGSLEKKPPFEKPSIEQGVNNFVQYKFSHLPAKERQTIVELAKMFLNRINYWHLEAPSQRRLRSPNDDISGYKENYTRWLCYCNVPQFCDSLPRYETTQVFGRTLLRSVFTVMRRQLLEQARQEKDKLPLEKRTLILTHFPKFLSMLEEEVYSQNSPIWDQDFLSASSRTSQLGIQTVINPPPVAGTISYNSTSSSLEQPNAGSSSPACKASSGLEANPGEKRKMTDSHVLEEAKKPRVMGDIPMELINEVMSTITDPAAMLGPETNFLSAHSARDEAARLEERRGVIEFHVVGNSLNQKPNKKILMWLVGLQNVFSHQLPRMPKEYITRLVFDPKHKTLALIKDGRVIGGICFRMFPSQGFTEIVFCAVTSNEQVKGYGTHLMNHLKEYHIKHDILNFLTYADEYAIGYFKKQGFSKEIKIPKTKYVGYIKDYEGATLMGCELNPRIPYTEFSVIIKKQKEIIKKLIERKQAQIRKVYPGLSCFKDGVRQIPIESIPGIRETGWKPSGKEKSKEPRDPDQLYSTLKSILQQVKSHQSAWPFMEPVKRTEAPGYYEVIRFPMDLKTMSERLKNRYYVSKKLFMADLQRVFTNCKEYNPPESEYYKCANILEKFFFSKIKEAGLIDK

In the case of `CN1C[C@H](Nc2cnn(C)c(=O)c2Br)C[C@H](c2ccc(C(=O)N(C)CCCN(C)c3ccc(CCCOc4cccc5c4C(=O)N(C4CCC(=O)NC4=O)C5=O)cc3)cc2)C1` (stereo partly shown) [Compound Ref-1, reference compound], the EC90 came out at 1.8 nM in assay [1] (setting [7]), 51 nM in assay [2] (setting [7]), 16 nM in assay [5] (setting [7]) and 1 nM in assay [6] (setting [7]). The DC50 worked out at 0.075 nM in assay [1], 2.2 nM in assay [2] (read-out: DC50), 1.5 nM in assay [5] (read-out: DC50) and 0.1 nM in assay [6] (read-out: DC50). The GI50 in assay [3] is 60 nM; in assay [4], 32 nM.

A word on the DC50: it is the concentration giving 50% degradation. A word on the GI50: it is the concentration that inhibits growth by half.
